From patent publication US11559527B2 (priority 2017, dated 2023)

Assays:
Assay type in all cases: cell-based, Human
MCF7 cells [1] = test: Extracellular flux analysis (ECAR and OCR, XF96)
Experimental: Inhibition of mitochondrial fission by m-DIVI-1 or a derivative thereof also blocks the normal functioning of mitochondrial metabolism in CSCs. Indeed, it has been shown that a DRP1 mutant that inhibits mitochondrial fission increases glucose uptake and lactate production, and decreases ATP production. […] The extracellular acidification rate (ECAR) and the oxygen consumption rate (OCR) were measured using an XF96 Extracellular Flux Analyser, and FIGS. 5A, 5B, and 6A-6C show the data. Basal glycolysis, glycolytic capacity and glycolytic reserve were calculated after addition of glucose, oligomycin and 2-deoxyglucose (2DG) into the media. […] Thus, to measure basal respiration, ATP production, maximal respiration and spare respiratory capacity, oxygen consumption was also calculated after addition of oligomycin, FCCP and antimycin/rotenone into glucose-containing media. […] The OCR versus ECAR graph was also plotted to have an indication of the metabolic state of the cell. […] Thus, mDIVI-1-induced inhibition of mitochondrial fission functionally targets oxidative phosphorylation and also the glycolytic function of MCF7 cells, transforming them into cells with lower mitochondrial energetic needs.
EXTRACELLULAR FLUX […] AND BRADFORD ASSAY: Extracellular acidification rate (ECAR) and oxygen consumption rate (OCR) were measured in a XF96 Extracellular Flux Analyzer (Seahorse Biosciences). Briefly, 1×10^4 MCF7 cells per well were seeded in XF96 plates and incubated with complete medium. When cells were attached, mDIVI-1 and vehicle treatments were added. Six replicates were run for each condition. After 48 hours, un-buffered DMEM XF medium supplemented with 2 mM glutamine (pH 7.4) was added to the cells, and placed in a 37° C. CO2-free incubator for 1 hour. Ten mM glucose, 1 μM oligomycin and 100 mM 2-deoxyglucose (2-DG) were injected into the media at different time points and ECAR was measured. Likewise, ECAR and OCR were quantified using un-buffered DMEM XF medium supplemented with 2 mM glutamine, 2 mM sodium pyruvate and 10 mM glucose. One μM oligomycin, 0.9 μM FCCP and 1 μM rotenone and antimycin A were injected into the media at different time points and OCR and ECAR were measured. Cells were finally lysed with 0.1 M NaOH and protein lysate was subsequently stained with Quick Start™ Bradford 1× Dye Reagent (500-0205, BioRad) to normalise results. All parameters were calculated according to manufacturer.

MCF7 cells [2] = test: Reactive oxygen species (CM-H2DCFDA, flow cytometry)
Description: Inhibition of the mitochondrial fission impacts on other mitochondrial processes, such as mitochondrial metabolism and general and mitochondrial oxidative stress. To confirm, MCF7 cells were stained with MitoSOX and CM-H2DCFDA, and mitochondrial superoxide and total ROS were quantified by flow cytometry. […] Whereas the increase in general ROS goes in line with the increase in mitochondrial content, the boost in the levels of mitochondrial superoxide in mDIV1-treated cells is actually bigger than the observed increased mitochondrial content.
LEVELS OF REACTIVE OXYGEN SPECIES AND MITOCHONDRIAL SUPEROXIDE: For both assays, 2×10^5 MCF7 cells were seeded in 35 mm plates. […] Reactive oxygen species (ROS) production was measured using CM-H2DCFDA (C6827, Invitrogen). Briefly, cells were incubated for 20 minutes at 37° C. with 1 μM CM-H2DCFDA diluted in PBS and then placed in complete media for 20 minutes at 37° C. in the dark, to render the dye fluorescent, according to the manufacturer. Mitochondrial superoxide was measured using MitoSOX Red Mitochondrial Superoxide Indicator (M36008, ThermoFisher Scientific). […] ROS signal and MitoSOX signal was quantified as mean fluorescent intensity of the viable cell population in a Fortessa flow cytometer (BD Bioscience). Results were analysed using FlowJo software.

Hedgehog signaling = test: Luciferase reporter assay MCF7-GFP-GLI(luc); details: 50 μM, 2 and 5 days
Description: Mitochondrial fusion and fission may also have an impact in signaling pathways that regulate stem cell proliferation and survival. […] A range of reporter MCF7-GFP cell lines were generated, including MCF7-GFP-GLI(luc), MCF7-GFP-Rbp/Jk(luc), MCF7-GFP-SMAD(luc) and MCF7-GFP-TCF/LEF(luc), to assess Hedgehog signaling, Notch signaling, TGFβ signaling, and Wnt signaling, respectively. […] The data is shown in the four data plots in FIG. 9.
LUCIFERASE ASSAY: The Cignal Lenti reporter assay (luc) was used to monitor the activity of several signalling pathways in MCF7-GFP cells as explained previously. Luciferase Assay System (E1501, Promega) was performed according to manufacturer's instructions. 1×10^4 MCF7 […] were seeded in black-walled 96 well plates. When cells were attached, drug treatments were added for 18, 48 hours and 5 days. After treatment, Luciferase Assay was performed according to manufacturer's instructions and light signal was acquired in the Xenogen VivoVision IVIS Lumina. Results were normalized by SRB staining of cells grown in 96-well plates in parallel.
SULFORHODAMINE B (SRB) ASSAY: SRB (S9012, Sigma) measures total biomass by staining cellular proteins. […] Absorbance was spectrophotometrically measured at 562 nm in a FluoStar Omega plate reader (BMG Labtech). […]

MCF7 cells [3] = test: CD24/CD44 expression by FACS
Experimental: In human breast cancers, CSCs were first identified by the profile of expression of the cell surface marker CD24^−/CD44^+.
This is evident in FIGS. 10A and 10B.
The surviving fraction after 2 days and 5 days of growth was analyzed by FACS. MCF7 cells were either trypsinised or spun down and trypsinised and incubated with CD24 (IOTest CD24-PE, Beckman Coulter) and CD44 (APC mouse anti-human CD44, 559942, BD Pharmingen) for 15 minutes on ice. Cells were then rinsed twice in PBS, spun down, and resuspended with DAPI dye (D1306, Molecular probes) at 3 μM in PBS for 10 minutes. Samples were then analyzed by FACS (Fortessa, BD Bioscence). Only the live cell population, identified using the DAPI staining, was analyzed for CD24/CD44 expression. Data were analyzed using FlowJo software.

COc1cc(-n2c(S)nc3ccccc3c2=O)c(Cl)cc1Cl [mDIVI-1, 3-(2,4-Dichloro-5-methoxyphenyl)-2-sulfanyl-4(3H)-quinazolinone] was tested, and the “basal glycolysis (ECAR)” value (MCF7 cells [1]; 48 hours) was “did not have a significant effect”, the “glycolytic capacity (ECAR)” value (MCF7 cells [1]; 48 hours) was “reduced” and the “glycolytic reserve (ECAR)” value (MCF7 cells [1]; 48 hours) was “reduced”. For the same compound, the “oxygen consumption linked to ATP production” value (MCF7 cells [1]; 48 hours) was “significantly reduced”, the “oxygen consumption linked to basal respiration” value (MCF7 cells [1]; 48 hours) was “significantly reduced” and the spare respiratory capacity (MCF7 cells [1]; 48 hours, all mDIVI-1 concentrations) was “slightly increased”. The “oxygen consumption linked to maximal respiration” value (MCF7 cells [1]; 48 hours, to a lesser extent, at higher concentrations) was “significantly reduced”, the OCR/ECAR ratio (MCF7 cells [1]; compared to vehicle) was “decreased dose-dependently” and the “production of total ROS” value (MCF7 cells [2]; 5 days of treatment) was “slight trend toward an increase”. For the same compound, the “general oxidative stress levels” value (MCF7 cells [2]; after exposure to mDIVI-1) was “did not change”, the “Hedgehog/GLI pathway luciferase activity” value (Hedgehog signaling) was “inhibition” and the “abundance of CD24−/CD44+ subpopulation” value (MCF7 cells [3]; MCF7 grown as monolayers, 10 or 50 μM, vs vehicle) was “not reduced”. For the same compound, the “amount of CD24−/CD44+ cells” value (MCF7 cells [3]; MCF7 in suspension, dose-dependent) was “increased”.
